Here are results for 13 compounds from US9708312B2, “Dihydropyrimidinoisoquinolinones and pharmaceutical compositions thereof for the treatment of inflammatory disorders (GPR84 antagonists)” (GALAPAGOS NV, priority 2012, dated 2017).

In the assay the test system is human neutrophils. Put plainly: Human neutrophil migration assay (embelin-induced chemotaxis). The assay is classed as cell-based. As to conditions: for IC50: Neutrophil, neutrophils from human buffy coats, embelin at EC80. How it is done:
2.1. Human Neutrophil Migration Assay
The effect of agonists or antagonists for GPR84 can therefore be assayed in a neutrophil migration test. In the neutrophil migration assay, neutrophils, freshly isolated from buffy coats from human volunteers, are treated with a compound for 30 min Subsequently, the neutrophils are transferred to the upper wells of a Corning HTS transwell 96 permeable support system, of which the lower wells are filled with a embelin solution at EC80 (concentration which gives 80% of the activity of GPR84). After 1 h of incubation, migration of the neutrophils towards embelin in the lower compartment can be quantified by measuring the ATP-content of the lower wells using the ATPlite luminescence ATP detection assay system (Perkin Elmer, Cat. No.: 436110).
2.1.1 Isolation of Neutrophils from Human Buffy Coat
A human buffy coat is diluted with an equal volume of ice cold DPBS. 20 mL of the diluted buffy coat is gently mixed with 4 mL of ACD buffer (140 mM citric acid, 200 mM sodium citrate and 220 mM dextrose). Then, 12 mL of the 6% dextran/0.9% NaCl solution (15 g dextran T2000 and 2.25 g NaCl dissolved in 250 mL H2O) is added to the mixture and the samples are inverted gently up to 20 times. The total volume was transferred to a new recipient and incubated at room temperature for 1 h for complete separation of the two phases to occur. The yellowish supernatant is then transferred to a clean centrifugation tube and centrifuged for 12 min at 1300 rpm and 4° C. After centrifugation, the supernatant is discarded and the remaining cell pellet is rapidly resuspended in 12 mL of ice-cold H2O for red blood cell lysis to occur. After 20 seconds, 4 mL of ice-cold 0.6 M KCl is added. Samples are mixed carefully and centrifuged for 6 min at 1300 rpm, 4° C. The supernatant is discarded and the red blood cell lysis procedure is repeated one more time. Subsequently, the cell pellet is resuspended in 4 mL of DPBS and layered over 5 mL of Lymphoprep (Nycomed Pharma, Cat. No.: 1114545) in a 15 mL centrifuge tube. After centrifugation for 12 min at 1300 rpm, 4° C., the supernatant is removed and the cell pellet, containing the neutrophils, is resuspended in 25 mL chemotaxis buffer (RPMI 1640 medium, supplemented with 10 mM HEPES; freshly made for each experiment)
A cell suspension of 8.9×10^6 cells per milliliter is prepared. 20 μL of compound solution in chemotaxis buffer is added to 180 μL cell suspension. The mixture is incubated at 37° C. for 30 min with intermediate resuspension of the cells after 15 min Following this, 70 μL cell suspension is transferred to the upper compartment of a Corning HTS transwell 96 permeable support system with 5.0 μm pore size polycarbonate membrane (Corning, Cat. No.: 3387). The receiver well of the transwell system is then filled with 200 μL chemotaxis buffer containing compound and chemotactic agent (embelin). After incubation at 37° C. in 5% CO2 for 1 h, the upper plate of the transwell system is removed and the cell suspension in the receiver plate is transferred to a 96-well V-bottom plate. 50 μL of DPBS is added to the receiver plate to prevent remaining cells from drying out. The V-bottom plate is centrifuged for 6 min at 1500 rpm. The supernatant is removed and the cells are resuspended in 50 μL DPBS. The cells are then transferred back to the receiver plate of the transwell system. After this, 100 μL ATPlite solution (Perkin Elmer, Cat. No: 436110) was added to the cells. The plate is incubated for 10 min in the dark, while shaking. […] of cell lysate is then transferred to a white 96-well plate and luminescence is measured. The detected luminescent signal is considered as linearely related to the number of cells having migrated from the upper well to the receiver well.

A word on the IC50: it is the concentration at which inhibition is half-maximal. The compound `O=c1nc(OCC2CCCO2)cc2n1CCc1cc(OCc3cccc(-c4cncnc4)n3)ccc1-2` (stereo not shown) [compound 57, 9-(6-pyrimidin-5-yl-pyridin-2-ylmethoxy)-2-(tetrahydro-furan-2-ylmethoxy)-6,7-dihydro-pyrimido[6,1-a]isoquinolin-4-one] gave an IC50 of 100 to 500 nM.
Still for that read-out and setting: as for `O=c1nc(OCC2COc3ccccc3O2)cc2n1CCc1cc(OCc3nnn[nH]3)ccc1-2` (stereo not shown) [compound 76, 2-(2,3-dihydro-benzo[1,4]dioxin-2-ylmethoxy)-9-(1H-tetrazol-5-ylmethoxy)-6,7-dihydro-pyrimido[6,1-a]isoquinolin-4-one], the figure is 0.01 to 100 nM; as for `O=c1nc(OCC2COc3ncccc3O2)cc2n1CCc1cc(-c3cn[nH]c3)ccc1-2` (stereo not shown) [compound 180, 2-(2,3-dihydro-[1,4]dioxino[2,3-b]pyridin-2-ylmethoxy)-9-(1H-pyrazol-4-yl)-6,7-dihydro-pyrimido[6,1-a]isoquinolin-4-one], 0.01 to 100 nM.
In turn, `O=c1nc(OCC2COc3ncccc3O2)cc2n1CCc1cc(OCc3nnn[nH]3)ccc1-2` (stereo not shown) [compound 93, 2-(2,3-dihydro-[1,4]dioxino[2,3-b]pyridin-2-ylmethoxy)-9-(1H-tetrazol-5-ylmethoxy)-6,7-dihydro-pyrimido[6,1-a]isoquinolin-4-one] came in with an IC50 of 100 to 500 nM.
Turning to `CCCCCCCCCC(=O)[O-].[Na+]` [sodiumdecanoate, reference compound], the “neutrophil chemotaxis induced by GPR84 agonists” value is “induce neutrophil chemotaxis”.
For `O=c1nc(OCC2COc3ncccc3O2)cc2n1CCc1cc(COCCN3CCOCC3)ccc1-2` (stereo not shown) [compound 192, 2-(2,3-dihydro-[1,4]dioxino[2,3-b]pyridin-2-ylmethoxy)-9-(2-morpholin-4-yl-ethoxymethyl)-6,7-dihydro-pyrimido[6,1-a]isoquinolin-4-one], the half-maximal inhibitory concentration (IC50) lay within 0.01 to 100 nM.
Same read-out and setting: as for `O=c1nc(OC[C@H]2COc3ncccc3O2)cc2n1CCc1cc(OCc3ncco3)ccc1-2` [compound 189], the figure is 0.01 to 100 nM.
Same read-out and setting: the result for `O=c1nc(OCC2CCCO2)cc2n1CCc1cc(OCC3COc4ccccc4O3)ccc1-2` (stereo not shown) [compound 18, 9-(2,3-dihydro-benzo[1,4]dioxin-2-ylmethoxy)-2-(tetrahydro-furan-2-ylmethoxy)-6,7-dihydro-pyrimido[6,1-a]isoquinolin-4-one] reads 0.01 to 100 nM.
The compound `CC(C)C(O)C#Cc1ccc2c(c1)CCn1c-2cc(OCC2COc3ncccc3O2)nc1=O` (stereo not shown) [compound 188, 2-(2,3-dihydro-[1,4]dioxino[2,3-b]pyridin-2-ylmethoxy)-9-(3-hydroxy-4-methyl-pent-1-ynyl)-6,7-dihydro-pyrimido[6,1-a]isoquinolin-4-one] registered an IC50 of 0.01 to 100 nM.
Same read-out and setting: as for `O=c1nc(OCC2COc3ncccc3O2)cc2n1CCc1cc(OCc3ncco3)ccc1-2` (stereo not shown) [compound 86, 2-(2,3-dihydro-[1,4]dioxino[2,3-b]pyridin-2-ylmethoxy)-9-(oxazol-2-ylmethoxy)-6,7-dihydro-pyrimido[6,1-a]isoquinolin-4-one], the figure is 0.01 to 100 nM; as for `N#CCOc1ccc2c(c1)CCn1c-2cc(OCC2COc3ncccc3O2)nc1=O` (stereo not shown) [compound 89, [2-(2,3-dihydro-[1,4]dioxino[2,3-b]pyridin-2-ylmethoxy)-4-oxo-6,7-dihydro-4H-pyrimido[6,1-a]isoquinolin-9-yloxy]-acetonitrile], 0.01 to 100 nM.
Compound `CCC(O)C#Cc1ccc2c(c1)CCn1c-2cc(OCC2COc3ncccc3O2)nc1=O` (stereo not shown) [compound 182, 2-(2,3-dihydro-[1,4]dioxino[2,3-b]pyridin-2-ylmethoxy)-9-(3-hydroxy-pent-1-ynyl)-6,7-dihydro-pyrimido[6,1-a]isoquinolin-4-one] registered a 50% inhibitory concentration (IC50) of 0.01 to 100 nM.
Same read-out and setting: the result for `O=c1nc(OCC2COc3ncccc3O2)cc2n1CCc1cc(COC3COC3)ccc1-2` (stereo not shown) [compound 202, 2-(2,3-dihydro-[1,4]dioxino[2,3-b]pyridin-2-ylmethoxy)-9-(oxetan-3-yloxymethyl)-6,7-dihydro-pyrimido[6,1-a]isoquinolin-4-one] reads 0.01 to 100 nM.
